# No end group written: not given here.
# Columns and labels:
# LONG-COVID-19 symptoms = assay: Treatment of patients suffering from post-COVID-19 syndrome (long COVID) with daily s.c. injection of HEP-1, single case reports; format: in vivo, human
# [1] = Toxicity at high dosages (general statement); format: in vivo; conditions: high dosages of 50 mg per kg of body weight per day or higher
# Description: The dosage of Ezrin peptide 1 and its analogues of the formula (I) is not particularly critical, as Ezrin peptide 1 and its analogues are not toxic even at high dosages of 50 mg per kg of body weight per day or higher. Preferably, Ezrin peptide 1 and its analogues are administered to an adult human in an amount of at least 0.05 milligrams per day (mg/d), in particular at least 0.1 mg/d, e.g. in an amount of 0.05 to 5 mg/d, in particular 0.1 to 2 mg/d or 0.1 to 1 mg/d or 0.1 to 0.5 mg/d. Typically, for parenteral administrations lower dosages will be required than for oral or rectal administration. To achieve a rapid relief of the symptoms of post-COVID-19 syndrome, it may also be reasonable to administer at least 0.5 mg per day or at least 1 mg per day, e.g. in the range of 0.5 to 5 mg/d, but in other cases a lower dosage may be suitable. It is also possible to start with a higher dosage, e. g. in the range of 0.5 to 5 mg/d, more preferably 0.5 to 3 mg/d and then continue with a lower dosage of e.g. 0.05 to 0.5 mg/d or 0.1 to 0.5 mg/day. A single administration of Ezrin peptide 1 and/or one of its analogues of the formula (I) may be sufficient to ameliorate or even cure the symptoms of a post-COVID-19 syndrome. […] Depending on the severity of the symptoms, this time period is typically in the range of 5 days to 10 weeks and in particular in the range of 10 days to 8 weeks.
# cell cultures = conditions: R. Ataullakhanov et al. 2005; cited from earlier work
# [2] = system: inflammatory cytokine production; conditions: cell cultures; cited from earlier work
sequence,measurement,setting,value
"TEKKRRETVEREKE [HEP-1, NH2_Thr-Glu-Lys-Lys-Arg-Arg-Glu-Thr-Val-Glu-Arg-Glu-Lys-Glu_COOH]",final clinical outcome of long COVID,"LONG-COVID-19 symptoms; Example 1, person, HEP-1 0.2 mg s.c. per day 22 Jan. 2021 until Mar. 10 2021, assessed 10 Mar. 2021",complete recovery
same,"mental ability (short memory) and physical strength (walking distance), interim outcome","LONG-COVID-19 symptoms; Example 1, person, HEP-1 0.2 mg s.c. per day from 22 Jan. 2021, assessed 29 Jan. 2021",remarkable improvement
same,"mental ability (short memory) and physical strength (walking distance), interim outcome","LONG-COVID-19 symptoms; Example 2, person, ankylosis spondylitis, HEP-1 0.2 mg s.c. per day from 26 Feb. 2021, assessed 4 Mar. 2021",remarkable improvement
same,final clinical outcome of long COVID,"LONG-COVID-19 symptoms; Example 2, person, HEP-1 0.2 mg s.c. per day 26 Feb. 2021 until Mar. 17 2021, assessed 17 Mar. 2021",complete recovery
same,final clinical outcome of long COVID,"LONG-COVID-19 symptoms; Example 3, person, HEP-1 0.2 mg s.c. per day 29 Mar. 2021 until Apr. 24 2021, assessed 23 Apr. 2021",complete recovery
same,"mental ability (short memory) and physical strength (walking distance), interim outcome","LONG-COVID-19 symptoms; Example 3, person, HEP-1 0.2 mg s.c. per day from 29 Mar. 2021, assessed 15 Apr. 2021",remarkable improvement
same,final clinical outcome of long COVID (persisting fatigue syndrome),"LONG-COVID-19 symptoms; Example 4, person, HEP-1 0.2 mg s.c. per day for 10 days",free of any symptoms
same,final clinical outcome of long COVID (fatigue syndrome and cognitive disorder),"LONG-COVID-19 symptoms; Example 5, person, HEP-1 0.2 mg s.c. per day from 26 Feb. 2021, assessed 12 Mar. 2021",free of any symptoms
same,final clinical outcome of long COVID,"LONG-COVID-19 symptoms; Example 6, person, asthma, HEP-1 2 mg s.c. per day for 10 days, then 0.2 mg s.c. per day for 30 days, after 3 weeks of treatment",cured
same,"final clinical outcome of long COVID (fatigue, cognitive disorder, narcolepsy)","LONG-COVID-19 symptoms; Example 7, person, HEP-1 0.2 mg s.c. per day, after 11 days of treatment",symptoms completely disappeared
same,toxicity,[1],not toxic
same,anti-viral effect in cell cultures,cell cultures,shows an anti-viral effect
same,"production of pro- and inflammatory cytokins (e.g. IL-1, IL-6, TNF-alpha)",[2],reduces
same,synthesis of alpha- and beta interferons,[2],induces
